According to the supplement of paper PMC10307832:

Legend:
Experiment in all cases: relative viability (nuclei count vs DMSO), 5 days (fraction); higher = more cells survive
Kobe2602 = compound: C1=CC(=CC=C1NC(=S)NNC2=C(C=C(C=C2[N+](=O)[O-])C(F)(F)F)[N+](=O)[O-])F [Kobe2602]
Procedure, shortened: (§1)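 Following overnight incubation at 37 °C, lung cancer cell lines in 1536-well plates were pinned with five library-drug doses (not always all listed) in √10 steps on vehicle-anchored plates. The cells then spent 5 days without medium change before a combined fix, permeabilisation and Hoechst stain, 4× imaging and MetaXpress nuclear counts. Viability is the treated-to-vehicle ratio of nuclei, taken as the median across plates. Only plates with control CV below 25% and at least one doubling passed.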

Cabozantinib = compound: COc1cc2nccc(Oc3ccc(NC(=O)C4(C(=O)Nc5ccc(F)cc5)CC4)cc3)c2cc1OC [Cabozantinib]
Procedure, shortened: as §1

Zosuquidar = compound: O[C@@H](COc1cccc2ncccc12)CN1CCN([C@@H]2c3ccccc3[C@@H]3[C@H](c4ccccc42)C3(F)F)CC1 [Zosuquidar]
Procedure, shortened: as §1

[1] = compound: COc1cc2nccc(Oc3ccc(NC(=O)C4(C(=O)Nc5ccc(F)cc5)CC4)cc3)c2cc1OC [Cabozantinib] + C[C@@H](Oc1cc(-c2cnn(C3CCNCC3)c2)cnc1N)c1c(Cl)ccc(F)c1Cl [Crizotinib] (partner 1 µM)
Procedure, shortened: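 Medians of duplicate plates are given as relative viability. That measure is the nuclei count in treated wells divided by the count in vehicle wells. Counts were taken on 4× images of lung cancer cell lines in 1536-well plates, 5 days after pin-tool dosing the day after seeding with one drug alone or a fixed anchor-drug dose plus five library-drug doses (not always all listed) in √10 steps.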

Row | Cell Line | relative viability (Kobe2602; 0.2 µM) | relative viability (Kobe2602; 0.6325 µM) | relative viability (Kobe2602; 2 µM) | relative viability (Kobe2602; 6.325 µM) | relative viability (Kobe2602; 20 µM) | relative viability (Cabozantinib; 0.02 µM) | relative viability (Cabozantinib; 0.06325 µM) | relative viability (Cabozantinib; 0.2 µM) | relative viability (Cabozantinib; 0.6325 µM) | relative viability (Cabozantinib; 2 µM) | relative viability (Zosuquidar; 0.01 µM) | relative viability (Zosuquidar; 0.03162 µM) | relative viability (Zosuquidar; 0.1 µM) | relative viability (Zosuquidar; 0.3162 µM) | relative viability (Zosuquidar; 1 µM) | relative viability ([1]; first compound 0.02 µM) | relative viability ([1]; first compound 0.06325 µM) | relative viability ([1]; first compound 0.2 µM) | relative viability ([1]; first compound 0.6325 µM) | relative viability ([1]; first compound 2 µM)
1 | HCC-15 | 1 | 1.03 | 0.976 | 0.998 | 0.991 | 0.972 | 1.11 | 1.01 | 0.994 | 1.02 | 0.959 | 0.937 | 0.956 | 1.04 | 0.972 | 0.877 | 0.956 | 0.828 | 0.873 | 0.811
2 | HCC-44 | 0.982 | 1.02 | 0.974 | 0.958 | 0.942 | 1.01 | 1.05 | 1.04 | 1.06 | 1.01 | 1.01 | 1.03 | 0.987 | 1.05 | 0.978 | 0.855 | 0.85 | 0.841 | 0.834 | 0.85
3 | HCC-78 | 0.984 | 0.975 | 0.968 | 0.918 | 1.15 | – | 0.958 | 0.471 | 0.37 | 0.447 | 1.07 | 1 | – | 0.997 | 0.897 | 0.326 | 0.356 | 0.288 | 0.351 | 0.318
4 | HCC-366 | 0.985 | 0.982 | 1.02 | 1.02 | 1.07 | 1.06 | 1.02 | 0.99 | 0.967 | 0.995 | 1 | 1.04 | 0.977 | 1.04 | 0.986 | 0.71 | 0.778 | 0.547 | 0.358 | 0.385
5 | HCC-827 | 1.07 | 1.13 | 1.06 | 1 | 1.02 | 1.07 | 1.01 | – | 1.12 | 1.06 | 0.973 | 0.977 | 0.981 | 1.06 | 0.976 | 0.888 | 0.942 | – | 0.939 | 0.978
6 | HOP-62 | 0.983 | 1.07 | 0.952 | 1.04 | 1.01 | 1.1 | 1.1 | 1.16 | 1.08 | 1.09 | 1.03 | 1.05 | 1.02 | 1.05 | 0.975 | 0.821 | 1.06 | 1.14 | 0.89 | 0.902
7 | IA-LM | 0.932 | 1.08 | 0.923 | 0.895 | 0.929 | 1.21 | 1.09 | 0.9 | 1.04 | 1.27 | 0.939 | 1.01 | 0.838 | 0.945 | 0.865 | 0.962 | 0.795 | 0.908 | 0.755 | 0.92
8 | LC-2-ad | 0.999 | 1.02 | 0.954 | 0.951 | 1.08 | 0.838 | 1.13 | 0.946 | 0.878 | 0.704 | 0.919 | 1.07 | 0.923 | 1.13 | 0.995 | 0.438 | 0.606 | 0.493 | 0.474 | 0.467
9 | LCLC-97TM1 | 1.07 | 1.07 | 0.928 | 0.798 | 1 | – | 1.02 | 1.06 | 0.999 | 1.02 | 0.9 | 1.12 | – | 1.02 | 0.939 | – | 0.354 | 0.49 | 0.365 | 0.306
10 | LCLC-103H | 1.01 | 1.01 | 0.987 | 0.992 | 0.981 | 0.824 | 1.16 | 1.02 | 1.05 | 0.953 | 0.911 | 0.973 | 0.752 | 1.02 | 1.06 | 1 | 1.09 | 1.09 | 1.02 | 1.04
11 | LK-2 | 1.14 | 1.12 | 0.974 | 0.887 | 1.19 | 0.764 | 1.26 | 0.924 | 0.927 | 0.926 | 0.997 | 1.03 | 0.934 | 1.11 | 1.01 | – | 0.225 | 0.201 | 0.179 | 0.204
12 | NCI-H522 | 1.08 | 1.11 | 0.997 | 0.895 | 0.979 | 0.863 | 0.98 | 0.897 | 0.98 | 1.15 | 1.01 | 0.809 | 0.955 | 1.06 | 0.907 | – | – | – | – | –
13 | NCI-H1395 | 0.978 | 1.22 | 0.893 | 1.06 | 0.976 | 0.797 | 1.23 | 1.01 | 0.938 | 0.815 | 0.914 | 0.869 | 0.717 | 1.18 | 0.891 | – | – | – | – | –
14 | NCI-H1623 | 1.04 | 1 | 1.03 | 0.9 | 0.933 | 0.959 | 1.13 | 0.731 | 1 | 0.972 | 0.98 | 0.898 | 0.879 | 1 | 1.02 | – | – | – | – | –
15 | NCI-H1648 | 1.22 | 0.902 | 0.701 | 0.824 | 0.763 | 0.868 | 0.991 | 0.629 | 1.07 | 0.802 | 0.969 | 0.947 | 0.676 | 0.673 | 0.852 | – | – | – | – | –
16 | NCI-H1793 | 0.862 | 0.889 | 0.853 | 0.86 | 1.04 | 0.846 | 0.992 | 0.59 | 0.832 | 0.776 | 0.902 | 0.754 | – | 1.15 | 0.892 | – | – | – | – | –
17 | NCI-H2342 | 1.03 | 1.06 | 0.92 | 0.946 | 1.12 | 0.909 | 1.02 | 0.866 | 0.952 | 0.888 | 0.876 | 0.964 | 0.758 | 1.11 | 1 | – | – | – | – | –
18 | SW 900 | 0.987 | 0.861 | 0.83 | 0.906 | 0.975 | 0.807 | 1.14 | 0.815 | 0.959 | 0.903 | 0.904 | 0.889 | 0.705 | 1.22 | 0.759 | – | – | – | – | –
